From paper PMC9981719, “A novel designed membrane-active peptide for the control of foodborne Salmonella enterica serovar Typhimurium” (Scientific Reports, 2023)
Where no end group is shown, it is not given here.

Experiments:
[1] = tested on: Acinetobactero baumanii MT strain; type: cell-based
Description: (§1) All tests were done in triplicate.

[2] = tested on: Listeria monocytogenes 10403s; type: cell-based; details: 10403s
Description: as §1

[3] = tested on: Staphylococcus epidermidis ATCC 12228; type: cell-based
Description: as §1

[4] = tested on: Bacillus cereus ATCC 11778; type: cell-based
Description: as §1

[5] = tested on: Pseudomonas aeruginosa ATCC 27853; type: cell-based
Description: as §1

[6] = tested on: Staphylococcus aureus ATCC 25923; type: cell-based
Description: as §1

[7] = tested on: human red blood cells (hRBCs); experiment: Hemolysis assay; type: cell-based
Experimental: The toxicity of all peptide derivatives toward human red blood cells (hRBCs) was investigated by evaluating the amount of hemoglobin released after exposure to peptide. Briefly, hRBCs (blood group O) were collected from a healthy adult volunteer into a heparin-coated polycarbonate tube. The sample was centrifuged for 5 min at 1000g to separate erythrocytes from buffy coat and plasma. The erythrocytes were washed at least three times with 1 × PBS and centrifuged for 5 min at 1000g or until supernatant was clear. The sample was resuspended in PBS to obtain 2% (v/v) hRBCs. To determine hRBC lysis, hRBC suspensions were incubated with equal volumes of various concentrations of peptide (0.98–250 µg/ml) for 1 h at 37 °C. Intact hRBCs were centrifuged for 5 min at 1000g, supernatants were transferred into new 96-well plates, and absorbance was measured at OD 405 nm. Untreated hRBCs (in PBS only) served as negative control (ODNegative) and hRBCs treated with 0.1% Triton X-100 as positive control (ODTritonX-100). Absorbance of samples was converted to percentage hemolysis according to the equation: Hemolysis%=ODSample-ODNegative/ODTriton X-100-ODNegative×100

[8] = tested on: S. Typhimurium ATCC 13311; experiment: Effect of pH on MIC; type: cell-based, Salmonella enterica serovar Typhimurium
Experimental: The pH of peptide solutions was adjusted (pH 3, 5, 7, 9 and 11) using 1 M acetic acid (CH3COOH) and 1 M sodium hydroxide (NaOH). Solutions adjusted to the different pHs without addition of A11 were used as controls. Subsequently, twofold serially diluted solutions (0.98–250 μg/ml) of A11 peptide were prepared with different pHs of peptide solution and incubated at 37 °C for 60 min, transferred to 1 × 10^7 CFU/ml of S. Typhimurium ATCC 13311 suspensions, then incubated at 37 °C with continuous shaking. After 24 h, MIC values were determined.

[9] = tested on: S. Typhimurium ATCC 13311; experiment: Effect of temperature on MIC; type: cell-based, Salmonella enterica serovar Typhimurium
Experimental: Two-fold serial dilutions (0.98–250 μg/ml) of A11 peptide were prepared and pre-incubated for 60 min at one of various temperatures (40 °C, 60 °C, 80 °C and 100 °C), and then cooled to 4 °C. After 30 min, 50 μl of heated peptide solutions were cultured with 50 μl of S. Typhimurium ATCC 13311 suspensions (approximately 1 × 10^7 CFU/ml). After 24 h incubation at 37 °C, MICs were determined; all experiments were done in triplicate.

[10] = tested on: 4,5,12:i:- H2-039; type: cell-based, Salmonella enterica 4,5,12:i:-; details: strain H2-039
Description: as §1

[11] = tested on: 4,5,12:i:- H2-067; type: cell-based, Salmonella enterica 4,5,12:i:-; details: strain H2-067
Description: as §1

[12] = tested on: 4,5,12:i:- H1-024; type: cell-based, Salmonella enterica 4,5,12:i:-; details: strain H1-024
Description: as §1

[13] = tested on: 4,5,12:i:- H2-042; type: cell-based, Salmonella enterica 4,5,12:i:-; details: strain H2-042
Description: as §1

[14] = tested on: 4,5,12:i:- H2-047; type: cell-based, Salmonella enterica 4,5,12:i:-; details: strain H2-047
Description: as §1

[15] = tested on: 4,5,12:i:- H1-100; type: cell-based, Salmonella enterica 4,5,12:i:-; details: strain H1-100
Description: as §1

WVKKVARKVVKIGRKVAR-NH2 [A11]
MBC ([1]; 18 h): 31.25 µg/mL | MIC ([1]; 24 h): 15.63 µg/mL | MBC ([2]; 18 h): 125 (125) µg/ml | MIC ([2]; 24 h): 125 (125) µg/ml | MBC ([3]; ATCC 12228, 18 h): 31.25 µg/mL | MIC ([3]; ATCC 12228, 24 h): 15.63 µg/mL | MBC ([4]; ATCC 11778, 18 h): 250 (250) µg/ml | MIC ([4]; ATCC 11778, 24 h): 250 (250) µg/ml | MBC ([5]; ATCC 27853, 18 h): 62.5 µg/mL | MIC ([5]; ATCC 27853, 24 h): 31.25 µg/mL | MBC ([6]; ATCC 25923, 18 h): > 250 (> 250) µg/ml | MIC ([6]; ATCC 25923, 24 h): > 250 (> 250) µg/ml | hemolytic activity at the MIC concentration [7]: less than 2% | MIC at pH 3 ([8]; peptide solution adjusted to pH 3, incubated 37 °C 60 min, then 24 h with 1 × 10^7 CFU/ml): 125 µg/ml | MIC at pH 5 ([8]; peptide solution adjusted to pH 5, incubated 37 °C 60 min, then 24 h with bacteria): 31.25 µg/ml | MIC at pH 7 ([8]; peptide solution adjusted to pH 7, incubated 37 °C 60 min, then 24 h with bacteria): 15.63 µg/ml | MIC at pH 9 ([8]; peptide solution adjusted to pH 9, incubated 37 °C 60 min, then 24 h with bacteria): 15.63 µg/ml | MIC at pH 11 ([8]; peptide solution adjusted to pH 11, incubated 37 °C 60 min, then 24 h with bacteria): 31.25 µg/ml | MIC after 40 °C ([9]; peptide pre-incubated 60 min at 40 °C, cooled to 4 °C, then 24 h at 37 °C with bacteria, triplicate): 15.63 µg/mL | MIC after 60 °C ([9]; peptide pre-incubated 60 min at 60 °C, cooled to 4 °C, then 24 h at 37 °C with bacteria, triplicate): 15.63 µg/mL | MIC after 80 °C ([9]; peptide pre-incubated 60 min at 80 °C, cooled to 4 °C, then 24 h at 37 °C with bacteria, triplicate): 15.63 µg/mL | MIC after 100 °C ([9]; peptide pre-incubated 60 min at 100 °C, cooled to 4 °C, then 24 h at 37 °C with bacteria, triplicate): 15.63 µg/mL | MIC after heat treatment, same value at each temperature ([9]; various temperatures from 40 to 100 °C for 1 h): 15.63 µg/mL | MBC [10]: 125 µg/mL | MIC [10]: 62.5 µg/mL | MBC [11]: 62.5 (62.5) µg/ml | MIC [11]: 62.5 (62.5) µg/ml | MBC [12]: 62.5 (62.5) µg/ml | MIC [12]: 62.5 (62.5) µg/ml | MBC [13]: 125 µg/mL | MIC [13]: 62.5 µg/mL | MBC [14]: 125 µg/mL | MIC [14]: 62.5 µg/mL | MBC [15]: 62.5 (62.5) µg/ml | MIC [15]: 62.5 (62.5) µg/ml
